A short description of the experiment: Inhibition of C-south african HIV-1 protease assessed as hydrolysis of the chromogenic peptide substrate Lys-Ala-Arg-Val-Nle-p-nitro-Phe-Glu-Ala-Nle-NH2. Details: species or system Human immunodeficiency virus 1.

By IC50 is commonly meant the concentration that gives 50% inhibition.

The structures appear in SMILES notation.

In the case of `CC[C@H](C)[C@H](NC(=O)[C@H](C)NC(=O)C[C@H](NCc1ccccc1)C1O[C@@H]2OC(C)(C)O[C@@H]2[C@H]1OCc1ccccc1)C(=O)N[C@@H](COCc1ccccc1)C(=O)O` (some centres not stated), the IC50 is greater than 10000 nM. With `CC(C)[C@@H]1NC(=O)[C@H](Cc2ccccc2)NC(=O)C[C@@H](C2O[C@@H]3OC(C)(C)O[C@@H]3[C@H]2OCc2ccccc2)NC(=O)[C@H](C)NC1=O` (some centres not stated), the IC50 turned out to be 6500 nM. The value for `CC(C)[C@@H]1NC(=O)[C@H](Cc2ccccc2)NC(=O)C[C@@H](C2O[C@@H]3OC(C)(C)O[C@@H]3[C@H]2O)NC(=O)[C@H](C)NC1=O` (some centres not stated) was 961 nM; that for `COC(=O)N[C@H](C(=O)N[C@@H](Cc1ccccc1)[C@@H](O)CN(Cc1ccc(-c2ccccn2)cc1)NC(=O)[C@@H](NC(=O)OC)C(C)(C)C)C(C)(C)C` [ATAZANAVIR] was 4 nM; that for `CC[C@H](C)[C@H](NC(=O)[C@H](C)NC(=O)[C@H](CCC(=O)OCc1ccccc1)NC(=O)C[C@H](NCc1ccccc1)C1O[C@@H]2OC(C)(C)O[C@@H]2[C@H]1OCc1ccccc1)C(=O)O` (some centres not stated) was 5000 nM.

Consider `CC[C@H](C)[C@H](NC(=O)[C@H](C)NC(=O)[C@H](CCC(=O)O)NC(=O)C[C@H](N)C1O[C@@H]2OC(C)(C)O[C@@H]2[C@H]1O)C(=O)O` (some centres not stated), for which the IC50 is 3050 nM. As for `Cc1cccc(C)c1OCC(=O)N[C@@H](Cc1ccccc1)[C@@H](O)C[C@H](Cc1ccccc1)NC(=O)[C@H](C(C)C)N1CCCNC1=O` [LOPINAVIR], the figure is 25 nM; as for `CC[C@H](C)[C@H](NC(=O)[C@H](C)NC(=O)C[C@H](N)C1O[C@@H]2OC(C)(C)O[C@@H]2[C@H]1O)C(=O)N[C@@H](CO)C(=O)O` (some centres not stated), 1500 nM; as for `CC(C)[C@H](NC(=O)[C@H](Cc1ccccc1)NC(=O)C[C@H](N)C1O[C@@H]2OC(C)(C)O[C@@H]2[C@H]1OCc1ccccc1)C(=O)N[C@@H](C)C(=O)O` (some centres not stated), 1340 nM. With `CC[C@H](C)[C@@H]1NC(=O)[C@H](C)NC(=O)C[C@@H](C2O[C@@H]3OC(C)(C)O[C@@H]3[C@H]2O)NC(=O)[C@H](CO)NC1=O` (some centres not stated), the IC50 worked out at 3000 nM. As for `CC[C@H](C)[C@@H]1NC(=O)[C@H](C)NC(=O)[C@H](CCC(=O)O)NC(=O)C[C@@H](C2O[C@@H]3OC(C)(C)O[C@@H]3[C@H]2O)NC1=O` (some centres not stated), the IC50 stood at 2620 nM.

With `CC[C@H](C)[C@@H]1NC(=O)[C@H](C)NC(=O)C[C@@H](C2O[C@@H]3OC(C)(C)O[C@@H]3[C@H]2OCc2ccccc2)NC(=O)[C@H](COCc2ccccc2)NC1=O` (some centres not stated), the IC50 is greater than 10000 nM. Consider `CC[C@H](C)[C@@H]1NC(=O)[C@H](C)NC(=O)[C@H](CCC(=O)OCc2ccccc2)NC(=O)C[C@@H](C2O[C@@H]3OC(C)(C)O[C@@H]3[C@H]2OCc2ccccc2)NC1=O` (some centres not stated), for which the IC50 is 2500 nM. Regarding `CC(C)[C@H](NC(=O)[C@H](Cc1ccccc1)NC(=O)C[C@H](NCc1ccccc1)C1O[C@@H]2OC(C)(C)O[C@@H]2[C@H]1OCc1ccccc1)C(=O)N[C@@H](C)C(=O)O` (some centres not stated), the concentration for half-maximal inhibition (IC50) was found to be 2380 nM. With `CC(C)[C@H](NC(=O)[C@H](Cc1ccccc1)NC(=O)C[C@H](N)C1O[C@@H]2OC(C)(C)O[C@@H]2[C@H]1O)C(=O)N[C@@H](C)C(=O)O` (some centres not stated), the IC50 came to 1100 nM. With `CC[C@H](C)[C@H](NC(=O)[C@H](C)NC(=O)C[C@H](N)C1O[C@@H]2OC(C)(C)O[C@@H]2[C@H]1OCc1ccccc1)C(=O)N[C@@H](COCc1ccccc1)C(=O)O` (some centres not stated), the IC50 is greater than 10000 nM. As to `CC[C@H](C)[C@H](NC(=O)[C@H](C)NC(=O)[C@H](CCC(=O)OCc1ccccc1)NC(=O)C[C@H](N)C1O[C@@H]2OC(C)(C)O[C@@H]2[C@H]1OCc1ccccc1)C(=O)O` (some centres not stated), the concentration for half-maximal inhibition (IC50) stood at 3500 nM.

Values taken from ChEMBL document CHEMBL2311461, “Linear and cyclic glycopeptide as HIV protease inhibitors” (Eur J Med Chem, 2013).
